What all share (assay type): cell-based, human
Assay [1] has as its system phospho-Serine 318 ATG13 (pATG13), ULK kinase substrate, in A549 (KRAS mutant) cells. The experiment in a line: pATG13 levels of mutant KRas A549 cells after treatment with ULK inhibitors in combination with trametinib (ELISA). Particulars: with 250 nM trametinib. Summed up:
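A549 cells grown overnight were treated overnight at 37 °C with a dose response of test compound plus 250 nM trametinib (final) or DMSO. Lysates were assayed by sandwich ELISA, with total ATG13 capture and biotinylated pS318-ATG13 detection read at 450 nm minus 540 nm, giving % phosphorylation against control and IC50.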
For orientation: ELISA stands for enzyme-linked immunosorbent assay.

The test system of assay [2] is phospho-Serine 318 ATG13 (pATG13) in MiaPaCa-2 cells. Briefly: pATG13 levels of mutant KRas MiaPaCa-2 cells after treatment with ULK inhibitors in combination with trametinib (ELISA). How it is done:
Example 178. pATG13 Levels of Mutant KRas MiaPaCa-2 Cells after Treatment with ULK Inhibitors in Combination with Trametinib
(§1) MiaPaCa-2 human pancreatic cancer cells (10000 cells/well) were added to a 384-well tissue-culture treated plate in 50 μL of pre-warmed DMEM medium supplemented with 10% characterized fetal bovine serum (Invitrogen, Carlsbad, Calif.), 100 units/mL penicillin G, 100 μg/mL streptomycin, and 2.5% Horse Serum and allowed to grow overnight at 37° C., 5% CO2, and 95% humidity. The following day, 10 μL of media containing trametinib or DMSO as a control was added to wells. The final concentration of trametinib in wells was 250 nM. A dose response of a test compound (0.6 μL per well) was added. DMSO (0.6 μL) was added to control wells. The plate was briefly shaken to mix wells and then incubated at 37° C. overnight. The next day, the media was aspirated and cells were washed with Dulbecco's Phosphate Buffered Saline (Gibco). Cells were lysed using MPER lysis buffer (Pierce, Rockford, Ill.) containing Halt Phosphatase and Protease Inhibitors (Pierce, Rockford, Ill.) and Phosphatase inhibitor cocktail 2 (Sigma, St. Louis, Mo.) at 4° C. for 10 minutes with shaking.
(§2) Cellular levels of phospho-Serine 318 ATG13 (pATG13) were measured via an ELISA method. Total ATG13 Antibody (Cell Signaling Cat #13273) was used to coat the wells. The plate was incubated at 4° C. overnight and washed with ELISA wash buffer (Biolegend Cat #421601). The wells were then blocked with assay diluent (Biolegend Cat #421203) for 1 hour at room temperature. Plate wells were washed with ELISA wash buffer. Cell lysate was added to wells and incubated at room temperature for 2 hours. Plate wells were washed with ELISA wash buffer. Biotinylated pS318-ATG13 antibody (Rockland Immunochemicals Cat #600-401-C49) was diluted in assay diluent and added to each well and incubated at room temperature for 1 hour. Plate wells were washed with ELISA wash buffer. Streptavidin linked to horseradish peroxidase (Thermo Fisher Cat #21140) was diluted in assay diluent and added to each well and incubated at room temperature for 1 hour. Plate wells were washed with ELISA wash buffer. High sensitivity TMB substrate (Biolegend Cat #421101) was added to each well and incubated at room temperature for 20 minutes. The reaction was stopped with 2N Sulfuric Acid. The plate was analyzed at on a plate reader measuring absorbance at 450 nm and 540 nm (background). Signal was calculated by first subtracting the background absorbance at 540 nm from the absorbance at 450 nm for each well. Next, the background corrected absorbance at 450 nm from blank wells was subtracted from test wells. Data was compared to control wells to determine % ATG13 phosphorylation. GraphPad Prism was used to calculate IC50 values.

Assay [3] has as its system phospho-Serine 318 ATG13 (pATG13) in HCT-116 cells. The experiment in a line: pATG13 levels of mutant KRas HCT-116 cells after treatment with ULK inhibitors in combination with trametinib (ELISA). The protocol:
Example 179. pATG13 Levels of Mutant KRas HCT-116 Cells after Treatment with ULK Inhibitors in Combination with Trametinib
as §1, with “HCT-116” for “MiaPaCa-2”, “colon” for “pancreatic”, “G, and” for “G,”, “streptomycin” for “streptomycin, and 2.5% Horse Serum”
as §2

Take `Cc1nn([C@@H]2CCN(C)C2)cc1Nc1ncc(C(F)(F)F)c(NCCCN2CCCOCC2=O)n1` [Example 106]: the IC50 (commonly the concentration needed to halve the response being measured) in assay [1] lay within 100 to 300 nM; in assay [2], 10 to 100 nM; in assay [3] it was 10 to 100 nM.
Consider `Cc1nn(C2CCN(C)CC2)cc1Nc1ncc(C(F)(F)F)c(NCCCN2CCCCCC2=O)n1` [Example 79], for which the IC50 in assay [1], in assay [2] and in assay [3] was 10 to 100 nM each time.
Turning to `Cc1nn(C2CCN(C)CC2)cc1Nc1ncc(C(F)(F)F)c(NCCCN2CCCCC2=O)n1` [Example 8], the IC50 in assay [1] lay within 10 to 100 nM.
`Cc1nn(C2CCN(C)CC2)cc1Nc1ncc(Cl)c(NCCCN2CCCOCC2=O)n1` [Example 105]: the IC50 in assay [1] was > 600 nM; in assay [2], 100 to 300 nM; in assay [3] it was 100 to 300 nM.
Take `Cc1nn(C2CCN(C)CC2)cc1Nc1ncc(C(F)(F)F)c(NCCCN2CCOCCC2=O)n1` [Example 127]: the IC50 in assay [1] was 100 to 300 nM; in assay [2], 10 to 100 nM; in assay [3], 100 to 300 nM.
As to `Cc1nn(C2CCN(C(C)C)CC2)cc1Nc1ncc(C(F)(F)F)c(NCCCN2CCCOCC2=O)n1` [Example 108], the IC50 in assay [1] is 300 to 600 nM; in assay [2], 100 to 300 nM; in assay [3], 100 to 300 nM.
In the case of `Cc1nn(C2CCN(C(C)C)CC2)cc1Nc1ncc(C(F)(F)F)c(NCCCN2CCOCCC2=O)n1` [Example 131], the IC50 in assay [1] lay within 300 to 600 nM; in assay [2], 100 to 300 nM; in assay [3], 100 to 300 nM.
For the compound `Cc1nn([C@@H]2CCN(C)C2)cc1Nc1ncc(C(F)(F)F)c(NCCCN2CCCCC2=O)n1` [Example 18], the IC50 in assay [1] lay within 100 to 300 nM.
Consider `Cc1nn(C2CCN(C(C)C)CC2)cc1Nc1ncc(C(F)(F)F)c(NCCCN2CCCOC2=O)n1` [Example 68], for which the results for the IC50 in assay [1], in assay [2] and in assay [3] were 300 to 600 nM, 10 to 100 nM and 10 to 100 nM, respectively.
As for `CCN1CCC(n2cc(Nc3ncc(C(F)(F)F)c(NCCCN4CCCOCC4=O)n3)c(C)n2)CC1` [Example 107], the IC50 is 100 to 300 nM in assay [1], 100 to 300 nM in assay [2] and 10 to 100 nM in assay [3].
On to `Cc1nn(C2CCN(C(C)C)CC2)cc1Nc1ncc(C(F)(F)F)c(NCCCN2CCCCC2=O)n1` [Example 15], for which the IC50 in assay [1], in assay [2] and in assay [3] was 10 to 100 nM each time.
Turning to `CCc1nn(C2CCN(C)CC2)cc1Nc1ncc(Br)c(NCCCN2CCCCC2=O)n1` [Example 53], the figures for the IC50 in assay [1], in assay [2] and in assay [3] were 100 to 300 nM, 100 to 300 nM and 10 to 100 nM, respectively.
With `CN(C)CCn1cc(Nc2ncc(C(F)(F)F)c(NCCCN3CCCCC3=O)n2)cn1` [Example 32], the IC50 in assay [1] was 100 to 300 nM; in assay [2] it was 10 to 100 nM; in assay [3], 10 to 100 nM.
In the case of `CC(C)N1CCC(n2cc(Nc3ncc(C(F)(F)F)c(NCCCN4CCCCC4=O)n3)cn2)CC1` [Example 6], the IC50 in assay [1] lay in the range of 10 to 100 nM; in assay [2] it was 10 to 100 nM; in assay [3], 100 to 300 nM.
Regarding `Cc1nn(CCCN2CCOCC2)cc1Nc1ncc(C(F)(F)F)c(NCCCN2CCCCCC2=O)n1` [Example 100], the IC50 in assay [1], in assay [2] and in assay [3] was 100 to 300 nM throughout.
On to `Cc1nn(CCN(C)C)cc1Nc1ncc(C(F)(F)F)c(NCCCN2CCCCC2=O)n1` [Example 21], for which the IC50 in assay [1] lay within 300 to 600 nM; in assay [2] it was 100 to 300 nM; in assay [3] it was 100 to 300 nM.
In the case of `CCN1CCC(n2cc(Nc3ncc(C(F)(F)F)c(NCCCN4CCOCCC4=O)n3)c(C)n2)CC1` [Example 130], the IC50 fell in the range of 100 to 300 nM in assay [1], 10 to 100 nM in assay [2] and 10 to 100 nM in assay [3].
Turning to `Cc1nn([C@H]2CCN(C)C2)cc1Nc1ncc(Br)c(NCCCN2CCCCC2=O)n1` [Example 61], the IC50 in assay [1] fell in the range of 100 to 300 nM; in assay [2] it was 10 to 100 nM; in assay [3] it was 10 to 100 nM.
`Cc1nn(C2CCN(C)CC2)cc1Nc1ncc(C(F)(F)F)c(NCCCN2CCCOCC2=O)n1` [Example 102]: the values for the IC50 in assay [1], in assay [2] and in assay [3] were 100 to 300 nM, 10 to 100 nM and 10 to 100 nM, respectively.
In the case of `CCN1CC[C@H](n2cc(Nc3ncc(Br)c(NCCCN4CCCCC4=O)n3)c(C)n2)C1` [Example 64], the IC50 in assay [1] lay within 100 to 300 nM; in assay [2], 10 to 100 nM.
